Source: patent US10709743B2, “Pharmaceutical wound healing composition” (Council of Scientific and Industrial Research, priority 2015, dated 2020)
“And” between values parts separate entries of the source, which are not always exact repeats. Equal entries are not always repeated.

What was measured:
[1] = test system: Wister rats (Male); assay: Incision wound model, wound size measurement; type: in vivo; parameters: unit not given here; settings: average of six animals
Description: The animals were housed in a standard individual metal cages and room was maintained at 22±1° C. with an alternating 12 h light-dark cycle. Food and water were provided ad libitum. All the experiments on animals were conducted after obtaining permission from Institutional Animal Ethical Committee of the Institute.
Animals were divided into two groups (six animals each).
All animals of two groups were anesthetized with an aesthetic ether, and a paravertebral long incision of 4.4 cm length were made through the skin and cutaneous muscle at a distance about 1.5 cm from the middle on right side of the depilated back.
All groups (A and B) of animals received sufficient amount of formulation applied externally (as depicted in table No. 2). All the test formulations were applied once a day for 10 days starting from the day of incision. Wound-healing property was evaluated by wound length and wound closure time.
Every alternative days wound size contraction was measured. By placing transparent blotting paper carefully on the wounded part of rats marking were done by permanent marker and size of reduction in wound noted.

[2] = test system: Wister rats (Male); assay: Incision wound model, wound size measurement; type: in vivo; parameters: unit not given here; settings: individual animals SR NO 1-6, applied once a day
[3] = cited from earlier work

Substance	wound size AVG ([1]; DAY 2)	wound size AVG ([1]; DAY 10)	wound size AVG ([1]; DAY-4)	wound size AVG ([1]; DAY-6)	wound size AVG ([1]; DAY-8)	wound size ([2]; DAY 2)	wound size ([2]; DAY 10)	wound size ([2]; DAY-4)	wound size ([2]; DAY-6)	wound size ([2]; DAY-8)	scavenging of hydroxyl, superoxide and DPPH radicals ([3]; ESR and ultraviolet spectrophotometry)	antioxidative activity on the peroxidation of linoleic acid ([3]; linoleic acid system)
Sericin [Group C]	26.83	6.5	24.33	23.33	16.33	26 (2×) and 24 and 25 and 30 (2×)	9 and 6 (3×) and 7 and 5	21 and 23 (2×) and 27 and 28 and 24	20 and 22 (2×) and 25 and 27 and 24	18 and 16 (3×) and 17 and 15	–	–
silk sericin	–	–	–	–	–	–	–	–	–	–	strong scavenging capacity	potent antioxidative activity
